Measurements: patent US9776990B2, “Isoindolone derivatives” (AbbVie Inc., priority 2012, dated 2017)

Tests used:
[1] = molecular target: BRD4 (BDI_K57-E168) (Homo sapiens (Human), UniProt O60885); assay: TR-FRET bromodomain binding assay, BRD4 first bromodomain; details: His-tagged BD1, 100 nM Alexa647 probe
Protocol: (§1) A time-resolved fluorescence resonance energy transfer (TR-FRET) assay was used to determine the affinities of compounds of the Examples listed in Table 1 for each bromodomain of BRD4. His-tagged first (BD1: amino acids K57-E168) and second (BD2: amino acids E352-E168) bromodomains of BRD4 were expressed and purified. An Alexa647-labeled BET-inhibitor was used as the fluorescent probe in the assay.
(§2) Compound dilution series were prepared in DMSO via a 3-fold serial dilution from 2.5 mM to 42 nM. Compounds were then diluted 6:100 in assay buffer (20 mM Sodium Phosphate, pH 6.0, 50 mM NaCl, 1 mM EDTA, 0.01% Triton X-100, 1 mM DTT) to yield 3× working solutions. Six microliters (μL) of the working solution was then transferred to white, low-volume assay plates (Costar #3673). A 1.5× assay mixture containing His-tagged bromodomain, Europium-conjugated anti-His antibody (Invitrogen PV5596) and the Alexa-647-conjugated probe molecule was also prepared. Twelve μL of this solution were added to the assay plate to reach a final volume of 18 μL. The final concentration of 1× assay buffer contains 2% DMSO, 50 μM−0.85 nM compound, 8 nM bromodomain, 1 nM antibody and 100 or 30 nM probe (for BDI or BDII, respectively). After a one-hour incubation at room temperature, TR-FRET ratios were determined using an Envision multilabel plate reader (Ex 340, Em 495/520).
(§3) TR-FRET data were normalized to the means of 24 no-compound controls (“high”) and 8 controls containing 1 μM un-labeled probe (“low”). Percent inhibition was plotted as a function of compound concentration and the data were fit with the 4 parameter logistic equation to obtain IC50s Inhibition constants (Ki) were calculated from the IC50s, probe Kd and probe concentration. Typical Z′ values were between 0.65 and 0.75. The minimum significant ratio was determined to evaluate assay reproducibility (Eastwood et al., (2006) J Biomol Screen, 11: 253-261). The MSR was determined to be 2.03 for BDI and 1.93 for BDII, and a moving MSR (last six run MSR overtime) for both BDI and BDII was typically <3.

[2] = molecular target: BRD4 (BDII_E352-M457) (Homo sapiens (Human), UniProt O60885); assay: TR-FRET bromodomain binding assay, BRD4 second bromodomain; details: His-tagged BD2, 30 nM Alexa647 probe
Protocol: as §1, §2, §3

[3] = tested on: breast cancer cell line MX-1; assay: MX-1 cell line proliferation assay (3-day, Cell Titer Glo); format: cell-based, human; details: Homo sapiens, MX1, MX-1 cells, 72 hours, read-out: Cellular proliferation: EC50
Protocol: The impact of compounds of the Examples on cancer cell proliferation was determined using the breast cancer cell line MX-1 (ATCC) in a 3-day proliferation assay. MX-1 cells were maintained in RPMI supplemented with 10% FBS at 37 C.° and an atmosphere of 5% CO2. For compound testing, MX-1 cells were plated in 96-well black bottom plates at a density of 5000 cells/well in 90 μl of culture media and incubated at 37° overnight to allow cell adhesion and spreading. Compound dilution series were prepared in DMSO via a 3-fold serial dilution from 3 mM to 0.1 μM. The DMSO dilution series were then diluted 1:100 in phosphate buffered saline, and 10 μL of the resulted solution were added to the appropriate wells of the MX-1 cell plate. The final compound concentrations in the wells were 3, 1, 0.3, 0.1, 0.03, 0.01, 0.003, 0.001, 0.0003 and 0.0001 μM.
Luminescence readings from the Cell Titer Glo assay were normalized to the DMSO treated cells and analyzed using the GraphPad Prism software with sigmoidal curve fitting to obtain EC50s. The minimum significant ratio (MSR) was determined to evaluate assay reproducibility (Eastwood et al., (2006) J Biomol Screen, 11: 253-261).

[4] = tested on: LPS induced IL-6 production; assay: LPS (lipopolysaccharide) induced IL-6 production mouse assay; format: in vivo; details: mice, 3 mg/kg (PO), one hour before LPS, serum 2 hours after LPS
Protocol: Compounds of the Examples listed in Table 8 were assayed for their ability to inhibit LPS (lipopolysaccharide) induced IL-6 production in mice. Severe combined immunodeficient female mice (8 per group) received an intraperitoneal challenge of lipopolysaccharide (2.5 mg/kg, L2630 E. coli 0111:B4) one hour after oral administration (PO) or intraperitoneal administration (IP) of compounds in a solution of 2% ethanol, 5% Tween-80, 20% PEG-400 and 73% (0.2% hydroxypropylmethylcellulose in water). Mice were euthanized 2 hours after lipopolysaccharide injection, blood was removed by cardiac puncture, and then the serum harvested from the blood samples was frozen at −80° C. On the day of the assay the serum samples were brought to room temperature and then diluted 1:20 in phosphate-buffered saline containing 2% bovine serum albumin. Interleukin-6 measurements were performed using a cytokine assay from Meso Scale Discovery (Gaithersburg, Md.) for mouse serum analysis according to the manufacturer's protocol and read on a SECTOR Imager 6000 (Meso Scale Discovery, Gaithersburg, Md.) instrument. Statistical analysis was performed using Prism software (version 5.0) incorporating Dunnett's one way ANOVA. The IL-6 mean and standard deviation of the group of vehicle treated animals were compared with the IL-6 mean and standard deviation of the group treated with drug. A p value <0.05 means that there is less than a 5% probability that the mean values in the two groups are equal.

SMILES	Ki [1] [nM]	Ki [2] [nM]	EC50 [3] [nM]	% inhibition of LPS induced IL-6 production [4]
CCS(=O)(=O)Nc1ccc(Oc2ccc(F)cc2F)c(-c2[nH]c(C)c3c2CCCC3=O)c1 [Example 47, N-[4-(2,4-difluorophenoxy)-3-(3-methyl-4-oxo-4,5,6,7-tetrahydro-2H-isoindol-1-yl)phenyl]ethanesulfonamide]	11	19	193	33.0 at 3 mg/kg (PO) %
Cc1[nH]c(-c2ccccc2OCC2CCCO2)c2c1C(=O)CCC2 (stereo not shown) [Example 31, 3-methyl-1-[2-(tetrahydrofuran-2-ylmethoxy)phenyl]-2,5,6,7-tetrahydro-4H-isoindol-4-one]	765	4680	> 3000	–
Cc1[nH]c(-c2cc(N)ccc2Oc2ccc(F)cc2F)c2c1C(=O)CCC2 [Example 45, 1-[5-amino-2-(2,4-difluorophenoxy)phenyl]-3-methyl-2,5,6,7-tetrahydro-4H-isoindol-4-one]	40	198	329	–
COc1cc(-c2[nH]c(C)c3c2CCCC3=O)cc(OC)c1OC [Example 7, 3-methyl-1-(3,4,5-trimethoxyphenyl)-2,5,6,7-tetrahydro-4H-isoindol-4-one]	261	805	676	–
Cc1[nH]c(-c2cc(N)ccc2Oc2ccccc2)c2c1C(=O)CCC2 [Example 39, 1-(5-amino-2-phenoxyphenyl)-3-methyl-2,5,6,7-tetrahydro-4H-isoindol-4-one]	148	365	232	–
Cc1[nH]c(-c2cc(N)ccc2Sc2ccccc2)c2c1C(=O)CCC2 [Example 43, 1-[5-amino-2-(phenylsulfanyl)phenyl]-3-methyl-2,5,6,7-tetrahydro-4H-isoindol-4-one]	1820	568	> 3000	–
CCNC(=O)c1ccc(Oc2ccccc2)c(-c2[nH]c(C)c3c2CCCC3=O)c1 [Example 55, N-ethyl-3-(3-methyl-4-oxo-4,5,6,7-tetrahydro-2H-isoindol-1-yl)-4-phenoxybenzamide]	77	511	1390	–
CCS(=O)(=O)Nc1ccc(OC2CCC(F)(F)CC2)c(-c2[nH]c(C)c3c2CCCC3=O)c1 [Example 52, N-{4-[(4,4-difluorocyclohexyl)oxy]-3-(3-methyl-4-oxo-4,5,6,7-tetrahydro-2H-isoindol-1-yl)phenyl}ethanesulfonamide]	9	88	184	–
Cc1[nH]c(-c2cc(NS(C)(=O)=O)ccc2Oc2ccccc2)c2c1C(=O)CC(C)C2 (stereo not shown) [Example 67, N-[3-(3,6-dimethyl-4-oxo-4,5,6,7-tetrahydro-2H-isoindol-1-yl)-4-phenoxyphenyl]methanesulfonamide]	12	68	110	–
Cc1[nH]c(-c2ccccc2OCc2ccccn2)c2c1C(=O)CCC2 [Example 34, 3-methyl-1-[2-(pyridin-2-ylmethoxy)phenyl]-2,5,6,7-tetrahydro-4H-isoindol-4-one]	1350	2620	> 3000	–
Cc1[nH]c(-c2ccc(S(C)(=O)=O)cc2)c2c1C(=O)CCC2 [Example 8, 3-methyl-1-[4-(methylsulfonyl)phenyl]-2,5,6,7-tetrahydro-4H-isoindol-4-one]	1430	3820	2500	–
